Test results: US20190209539A1, “THIOHYDANTOIN ANDROGEN RECEPTOR ANTAGONISTS FOR THE TREATMENT OF CANCER” (Janssen Pharmaceutica NV, priority 2016, published 2019)
Positions count from the first letter of the chain named.

Experiments:
[1] = target: T1, F876L mutant Androgen Receptor (AR-F876L) (Homo sapiens, UniProt P10275, F877L); experiment: LNCaP-AR-F876L AG: ARE luciferase reporter assay, agonist mode; assay type: cell-based
T1 construct: expressed in transfected cells; host or cells: LNCaP F876L cells with ARE firefly luciferase lentiviral construct
T1 sequence (P10275 1-920 F877L): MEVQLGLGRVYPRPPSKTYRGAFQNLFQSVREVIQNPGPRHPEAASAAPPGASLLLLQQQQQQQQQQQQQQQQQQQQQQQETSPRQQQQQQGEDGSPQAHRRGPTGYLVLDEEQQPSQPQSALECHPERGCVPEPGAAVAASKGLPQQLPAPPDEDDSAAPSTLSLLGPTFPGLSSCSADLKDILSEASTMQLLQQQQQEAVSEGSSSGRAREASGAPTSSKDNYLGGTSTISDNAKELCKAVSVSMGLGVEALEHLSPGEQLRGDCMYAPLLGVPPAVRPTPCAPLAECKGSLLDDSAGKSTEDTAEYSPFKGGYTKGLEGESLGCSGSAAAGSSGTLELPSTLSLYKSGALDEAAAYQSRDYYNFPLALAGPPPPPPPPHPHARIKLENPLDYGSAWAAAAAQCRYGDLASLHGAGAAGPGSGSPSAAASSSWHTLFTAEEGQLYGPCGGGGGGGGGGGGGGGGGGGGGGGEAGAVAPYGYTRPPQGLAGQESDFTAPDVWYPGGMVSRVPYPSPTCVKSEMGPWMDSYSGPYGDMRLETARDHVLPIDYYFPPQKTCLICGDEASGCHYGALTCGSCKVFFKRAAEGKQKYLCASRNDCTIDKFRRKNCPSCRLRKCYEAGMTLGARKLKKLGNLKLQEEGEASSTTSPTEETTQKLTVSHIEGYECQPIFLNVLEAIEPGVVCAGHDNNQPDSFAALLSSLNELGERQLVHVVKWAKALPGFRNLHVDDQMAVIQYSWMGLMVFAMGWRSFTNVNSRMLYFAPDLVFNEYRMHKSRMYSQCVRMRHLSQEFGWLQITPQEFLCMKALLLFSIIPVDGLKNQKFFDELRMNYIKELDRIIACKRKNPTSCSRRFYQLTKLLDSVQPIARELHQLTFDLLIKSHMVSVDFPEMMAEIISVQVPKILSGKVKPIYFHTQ

[2] = target: T2, wild-type Androgen Receptor (AR-wt) (Homo sapiens, UniProt P10275); experiment: LNCaP-AR-wt AG: ARE luciferase reporter assay, agonist mode; assay type: cell-based
T2 construct: expressed in transfected cells; host or cells: LNCaP AR (cs) cells with ARE firefly luciferase lentiviral construct
T2 sequence (P10275 1-920): T1 sequence (P10275 1-920 F877L) with L877F

[3] = tested on: androgen dependent signaling (androgen sensitive organs, ASO); experiment: Hershberger Assay; assay type: in vivo, Sprague-Dawley rats; conditions: p≤0.05, in all 5 organs
Experimental: The effect of AR antagonists on androgen dependent signaling in vivo was assessed using the Hershberger assay. In this assay, peripubertal castrated male Sprague-Dawley rats were administered AR antagonists described herein in the presence of testosterone (0.4 mg/kg testosterone propionate) and the weights of androgen dependent organs measured. Dosing was continued for 10 days and measurements taken 24 h after the last dose. The extent of antagonism of AR and consequent inhibition of organ growth was evaluated by comparison to the castration control. Compounds of Formula (I) were dosed orally QD and an endpoint assessment made by change in weight of 5 androgen sensitive organs (ASO): Paired Cowper's Glands (CG), Seminal Vesicles with Fluids and Coagulating Glands (SVCG), Glans Penis (GP), Ventral Prostate (VP) and Levator Ani-Bulbocavernosus Complex (LABC)). According to assay guidelines, statistically significant suppression of ASO is required in 2 of 5 organs for a compound to be classified as an anti-androgen (analysis was performed by t-test/Mann-Whitney).
Compounds defined herein were administered at the indicated dose (mg/kg) and flutamide (FT), positive control, at 3 mg/kg. […]

[4] = target: T1, F876L mutant Androgen Receptor (AR-F876L); experiment: LNCaP-AR-F876L ANT: ARE luciferase reporter assay, antagonist mode; assay type: cell-based
Experimental: (§1) A stable pooled-population cell line was generated using puromycin (Life Technologies) selection at 1:10,000 v/v. The protocol below was used for both cell lines and for testing of the compounds of Formula (I) of the present invention.
(§2) LNCaP cells were grown to about 80% confluence, media removed and cells rinsed in Hank's balanced salt solution prior to separation from the plate with 0.05% Trypsin EDTA. Cells were lifted and trypsin negated in complete CSS (charcoal stripped serum) culture media. […] Agonist challenge was at 400 pM for WT assay and 600 pM for F876L assay. Plates containing cells and compounds herein were incubated for a further 20-24 hours at 37° C., 5% CO2 before addition of 40 μL/well of Steady-Glo Luciferase Assay System Reagent (Promega# E2520). After 1 h, plates were read for luminescence on a BMG Pherastar.
(§3) EC/IC50 calculations were achieved utilizing calculated RLU data and data fitting macros. Data were fit using least-squares methods to the following formula: […]
(§4) As used herein: pIC50 is defined as—Log10(IC50 expressed in [Molar]). pEC50 is defined as—Log10(EC50 expressed in [Molar]). […] LNCaP-AR-wt ANT refers to the reporter assay using LNCaP cells stably transfected with the Androgen Response Element Firefly Luciferase lentiviral construct and wild-type Androgen Receptor (AR-wt) in Antagonist mode. […]

[5] = target: T2, wild-type Androgen Receptor (AR-wt); experiment: LNCaP-AR-wt ANT: ARE luciferase reporter assay, antagonist mode; assay type: cell-based
Experimental: as §1, §2, §3, §4

T877A AR mutant = target: T3, T877A AR mutant (Homo sapiens, UniProt P10275, T878A); conditions: cited from earlier work
T3 sequence (P10275 1-920 T878A): T1 sequence (P10275 1-920 F877L) with L877F, T878A

[6] = maximum % stimulation (agonist response), % of 1 μM R-1881 max

CN1CCN(CCCc2ccc(N3C(=S)N(c4cnc(C#N)c(C(F)(F)F)c4)C(=O)C34CCC4)cc2)CC1 [Cpd 43, 5-[8-[4-[3-(4-methylpiperazin-1-yl)propyl]phenyl]-5-oxo-7-thioxo-6,8-diazaspiro[3.4]octan-6-yl]-3-(trifluoromethyl)pyridine-2-carbonitrile]
LNCaP-AR-F876L AG MAX % Stim [1, 6]: 0.4% | LNCaP-AR-wt AG MAX % Stim [2, 6]: 0.7% | reduction in ASO versus TP control [3]: significant reduction

CNC(=O)c1ccc(N2C(=S)N(c3cnc(C#N)c(C)c3)C(=O)C23CCCC3)cc1F [Cpd 65, 4-[7-(6-cyano-5-methyl-3-pyridyl)-6-oxo-8-thioxo-7,9-diazaspiro[4.4]nonan-9-yl]-2-fluoro-N-methyl-benzamide]
EC50 ([1]; agonist mode, read-out: LNCaP-AR-F876L AG pEC50 (converted)): > 15100 nM | Emax ([1]; maximum % stimulation (agonist response), % of 1 μM R-1881 max, read-out: LNCaP-AR-F876L AG MAX % Stim): 0.8% | IC50 ([4]; antagonist mode, 600 pM R-1881 challenge, read-out: LNCaP-AR-F876L ANT pIC50 (converted)): 389 nM | Emax ([4]; maximum % inhibition of R1881 control response over tested concentration range, read-out: LNCaP-AR-F876L ANT MAX % Inh): 98.9% | EC50 ([2]; agonist mode, read-out: LNCaP-AR-wt AG pEC50 (converted)): > 15100 nM | Emax ([2]; maximum % stimulation (agonist response), % of 1 μM R-1881 max, read-out: LNCaP-AR-wt AG MAX % Stim): 1.2% | IC50 ([5]; antagonist mode, 400 pM R-1881 challenge, read-out: LNCaP-AR-wt ANT pIC50 (converted)): 417 nM | Emax ([5]; maximum % inhibition of R1881 control response over tested concentration range, read-out: LNCaP-AR-wt ANT MAX % Inh): 97.8%

CC(C)(O)C(=O)Nc1ccc([N+](=O)[O-])c(C(F)(F)F)c1 [hydroxyflutamide]
activity in T877A AR mutant (T877A AR mutant): act as AR agonists
